“And” between values parts separate entries of the source, which are not always exact repeats. Identical values can stand only once. “Also recorded” adds a separate entry of the source. Like-named read-outs stand apart in the source and are kept apart here.
Key:
Cytotoxicity assay = format: cell-based, African Green Monkey; details: African green monkey, VERO cells (kidney epithelial cells)
[1] = test system: multidrug resistant FCR-3 strain of P. falciparum; experiment: In vitro antiplasmodial activity; format: cell-based, Plasmodium falciparum
VERO cells = experiment: Cytotoxicity assay; format: cell-based, African Green Monkey; details: for SI (selectivity index): CC50 (cytotoxicity)/IC50 (FCR-3); for CC50: inhibition of 50% of VERO cells survival, 48 h, MTT
PM2 (plasmepsin II) = PM2 (plasmepsin II) (Plasmodium falciparum, UniProt P46925); experiment: Plasmepsin assay; format: biochemical, P. falciparum; details: tested at 5 μM
P. berghei ANKA = experiment: In vivo antimalarial activity, classical 4-day suppressive test; parameters: species or system Plasmodium berghei (Swiss male mice); details: oral 50 mg/kg/day x 4 days; for % Suppression of parasitemia: day 4
[2] = test system: chloroquine sensitive (D6) strain of P. falciparum; experiment: In vitro antiplasmodial activity; format: cell-based, Plasmodium falciparum
β-hematin formation = experiment: β-hematin inhibition assay; format: biochemical; details: screened between 0.44 and 110 μM; for IC50: read-out: β-hematin inhibition activity IC50
[3] = test system: Salmonella typhimurium TA1535/pSK1002; experiment: Genotoxicity assay, SOS/umu test; format: cell-based; details: for induction factor (IF): at non-cytotoxic concentrations with or without S9 fraction; for genotoxicity (SOS/umu test): with or without S9 fraction
[4] = test system: hemozoin formation pathway in D6 culture; experiment: Target validation in P. falciparum, heme speciation assay; format: cell-based, Plasmodium falciparum; details: increasing concentrations of compound
Heme binding studies = details: 40% DMSO, 0.02 M HEPES, pH 7.4
[5] = test system: multidrug resistant (C235) strain of P. falciparum; experiment: In vitro antiplasmodial activity; format: cell-based, Plasmodium falciparum
[6] = Plasmodium falciparum, FCR3, read-out: FCR-3 IC50, P. falciparum multidrug-resistant strain FCR-3
[7] = read-out: FCR-3 IC50, P. falciparum multidrug-resistant strain FCR-3
[8] = Plasmodium falciparum, D6, 72 h, read-out: Antimalarial activity IC50 D6, chloroquine sensitive strain D6, 72 h
[9] = read-out: Antimalarial activity IC50 D6, chloroquine sensitive strain D6, 72 h
[10] = Plasmodium falciparum, 72 h, read-out: Antimalarial activity IC50 C235, multidrug-resistant strain C235, 72 h

PM2 (plasmepsin II), sequence (P46925 125-453): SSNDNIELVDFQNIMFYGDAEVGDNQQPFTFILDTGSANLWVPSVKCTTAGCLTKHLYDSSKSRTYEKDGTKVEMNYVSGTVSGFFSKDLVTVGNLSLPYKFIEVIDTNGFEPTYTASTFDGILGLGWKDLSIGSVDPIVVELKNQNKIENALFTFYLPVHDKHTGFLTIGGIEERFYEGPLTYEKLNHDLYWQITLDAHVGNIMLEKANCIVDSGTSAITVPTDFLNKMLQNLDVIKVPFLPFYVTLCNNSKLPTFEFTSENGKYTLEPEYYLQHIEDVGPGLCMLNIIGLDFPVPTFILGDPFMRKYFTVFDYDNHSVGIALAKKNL

For `COc1cccc2c1C(=O)c1c(O)c3c(c(O)c1C2=O)C[C@@](O)(C(=O)CO)C[C@@H]3O[C@H]1C[C@H](N)[C@H](O)[C@H](C)O1` [Doxorubicin, reference compound], which CC50 at 48 h (Cytotoxicity assay) is on record?
Its CC50 at 48 h is 6.4 µM.

Which results are given for `OC(CCN1CC=C(c2ccc(F)cc2)CC1)c1ccc(F)cc1` (stereo not shown) [Compound 26, 1-(4-fluorophenyl)-3-[4-(4-fluorophenyl)-3,6-dihydropyridin-1(2H)-yl]propan-1-ol]?
IC50 [1, 6]: < 1 µM; IC50 [1, 7]: 0.66 ± 0.01 µM; CC50 at 48 h (Cytotoxicity assay): > 100 µM; SI (selectivity index) (VERO cells): >150

For `O=[N+]([O-])c1ccc(N2CCCN(CCC(O)c3csc4ccc(F)cc34)CC2)c(C(F)(F)F)c1` (stereo not shown) [Compound 17, 1-(5-fluorobenzo[b]thiophen-3-yl)-3-[4-(4-nitro-2-trifluoromethylphenyl)-1,4-diazepan-1-yl]propan-1-ol], which IC50 [1, 6] is on record?
The IC50 was under 1 µM.

And the IC50 [1, 7]?
The IC50 was 0.75 ± 0.02 µM.

And the CC50 at 48 h (Cytotoxicity assay)?
The CC50 at 48 h was 13.3 µM.

What about the “SI (selectivity index)” value (VERO cells) of the same compound?
Its value is 18.

And the “inhibition of PM2 compared to the control” value (PM2 (plasmepsin II))?
Its value is “no significant inhibition”.

What does the source list for `OC(CCN1CCN(c2ccc(C(F)(F)F)cc2)CC1)c1csc2ccc(F)cc12` (stereo not shown) [Compound 16, 1-(5-fluorobenzo[b]thiophen-3-yl)-3-(4-(4-trifluoromethylphenyl)piperazin-1-yl) propan-1-ol]?
IC50 [1, 6]: 1.68 ± 0.6 µM; CC50 at 48 h (Cytotoxicity assay): > 250 µM; SI (selectivity index) (VERO cells): >100; inhibition of PM2 compared to the control (PM2 (plasmepsin II)): no significant inhibition

Which results are given for `OC(CCN1CCN(c2ccc(C(F)(F)F)cc2)CC1)c1ccc(F)c2ccccc12` (stereo not shown) [Compound 21]?
IC50 [1, 7]: 0.93 ± 0.7 µM; CC50 (VERO cells): > 100 µM

Which results are given for `O=[N+]([O-])c1ccc(N2CCN(CCC(O)c3csc4ccc(F)cc34)CC2)c(C(F)(F)F)c1` (stereo not shown) [Compound 14, 1-(5-fluorobenzo[b]thiophen-3-yl)-3-[4-(4-nitro-2-trifluoromethylphenyl)piperazin-1-yl] propan-1-ol]?
IC50 [1, 6]: 1.32 ± 0.2 µM; CC50 at 48 h (Cytotoxicity assay): > 200 µM; SI (selectivity index) (VERO cells): >150; inhibition of PM2 compared to the control (PM2 (plasmepsin II)): no significant inhibition

For `O=[N+]([O-])c1cc(C(F)(F)F)ccc1N1CCN(CCC(O)c2csc3ccc(F)cc23)CC1` (stereo not shown) [Compound 15, 1-(5-fluorobenzo[b]thiophen-3-yl)-3-[4-(2-nitro-4-trifluoromethylphenyl)piperazin-1-yl] propan-1-ol], which IC50 [1, 6] is on record?
The IC50 was 2.23 ± 0.2 µM.

And the CC50 at 48 h (Cytotoxicity assay)?
The CC50 at 48 h was over 150 µM.

And the “SI (selectivity index)” value (VERO cells)?
The value was over 50.

For `O=[N+]([O-])c1ccc(N2CCC(NCCC(O)c3csc4ccc(F)cc34)CC2)c(C(F)(F)F)c1` (stereo not shown) [Compound 18], which IC50 [1, 7] is on record?
The IC50 was 0.7 ± 0.1 µM.

What about the CC50 (VERO cells) of the same compound?
The CC50 was 6.3 µM.

And the “inhibition of PM2 compared to the control” value (PM2 (plasmepsin II))?
The value was “no significant inhibition”.

For `O=[N+]([O-])c1ccc(N2CCC(NCCC(O)c3ccc(F)c4ccccc34)CC2)c(C(F)(F)F)c1` (stereo not shown) [Compound 22, 1-(4-Fluoronaphthalen-1-yl)-3-((1-(4-nitro-2-(trifluoromethyl)phenyl)piperidin-4-yl)amino) propan-1-ol], which CC50 at 48 h (Cytotoxicity assay) is on record?
The CC50 at 48 h was 5.5 µM.

What about the “SI (selectivity index)” value (VERO cells) of the same compound?
Its value is 37.

And the “MSD (mean survival time)” value (P. berghei ANKA; P. berghei-infected mice)?
The value was over 35 days.

And the “cure / survival of treated mice” value (P. berghei ANKA; P. berghei-infected mice)?
Its value is “complete cure”.

What about the “% Suppression of parasitemia” value (P. berghei ANKA; P. berghei-infected mice, 50 mg/kg/day) of the same compound?
The value was 98 ± 1% and 98%.

What about the “signs of toxicity in treated mice” value (P. berghei ANKA) of the same compound?
The value was “no signs of toxicity”.

And the IC50 [2, 8]?
The IC50 was at most 0.19 µM.

What about the IC50 [2, 9] of the same compound?
The IC50 was 0.11 ± 0.01 µM.

What about the IC50 (β-hematin formation) of the same compound?
Its IC50 is 80.7 ± 1.7 µM.

What about the “induction factor (IF)” value [3] of the same compound?
Its value is “lower than 2”.

And the “genotoxicity (SOS/umu test)” value [3]?
Its value is “absence of genotoxicity; also recorded: not considered genotoxic”.

And the “inhibition of PM2 compared to the control” value (PM2 (plasmepsin II))?
Its value is “no significant inhibition”.

And the “levels of free heme and hemozoin” value [4]?
The value was “remained constant”.

And the “affinity for the μ-oxo dimer form of heme (binding curve)” value (Heme binding studies)?
The value was “affinity resembling that of chloroquine”.

Which results are given for `CCN(CC)CCCC(C)Nc1ccnc2cc(Cl)ccc12` (stereo not shown) [CQ, chloroquine, reference compound]?
IC50 [1, 6]: 0.13 µM; CC50 at 48 h (Cytotoxicity assay): > 50 µM; IC50 [2, 8]: 0.014 ± 0.001 µM; IC50 [5, 10]: 0.048 ± 0.004 µM; IC50 (β-hematin formation): 48.7 ± 2.7 µM

With `O=[N+]([O-])c1ccc(N2CCN(CCC(O)c3ccc(F)cc3)CC2)c(C(F)(F)F)c1` (stereo not shown) [Compound 24, 1-(4-fluorophenyl)-3-[4-(4-nitro-2-trifluoromethylphenyl)piperazin-1-yl]propan-1-ol] as the compound, how does the CC50 at 48 h (Cytotoxicity assay) read?
The CC50 at 48 h was 88 µM.

And the “SI (selectivity index)” value (VERO cells)?
The value was 244.

What about the “MSD (mean survival time)” value (P. berghei ANKA; P. berghei-infected mice) of the same compound?
Its value is 8 days.

And the “% Suppression of parasitemia” value (P. berghei ANKA; P. berghei-infected mice)?
Its value is 17 ± 8%.

And the “induction factor (IF)” value [3]?
Its value is “lower than 2”.

And the “genotoxicity (SOS/umu test)” value [3]?
The value was “absence of genotoxicity; also recorded: not considered genotoxic”.

And the “inhibition of PM2 compared to the control” value (PM2 (plasmepsin II))?
The value was “no significant inhibition”.

For `Fc1ccc(C2=CCNCC2)cc1` [AM01, 4-(4-fluorophenyl)-1,2,3,6-tetrahydropyridine], which IC50 [1, 6] is on record?
The IC50 was 8.2 ± 2 µM.

What about the “genotoxicity (SOS/umu test)” value [3] of the same compound?
Its value is “not considered genotoxic”.

For `O=[N+]([O-])c1ccc(NC2CCNCC2)c(C(F)(F)F)c1` [AM02, 4-(4-nitro-2-trifluoromethylphenyl)aminopiperidine], which IC50 [1, 6] is on record?
The IC50 was 4.3 ± 0.9 µM.

What about the “genotoxicity (SOS/umu test)” value [3] of the same compound?
The value was “not considered genotoxic”.

With `OC(CCN1CC=C(c2ccc(F)cc2)CC1)c1ccc(C(F)(F)F)cc1` (stereo not shown) [Compound 20, 3-[4-(4-fluorophenyl)-3,6-dihydropyridin-1(2H)-y])-1-(4-(trifluoromethylphenyl)propan-1-ol] as the compound, how does the IC50 [1, 7] read?
The IC50 was 5.6 ± 2.3 µM.

What about the CC50 (VERO cells) of the same compound?
The CC50 was over 350 µM.

Which IC50 [1, 6] does the source give for `OC(CCN1CC=C(c2ccc(F)cc2)CC1)c1ccc2ccccc2c1` (stereo not shown) [Compound 19, 3-[4-(4-fluorophenyl)-3,6-dihydropyridin-1(2H)-yl]-1-(naphthalen-2-yl)propan-1-ol] here?
The IC50 was 14 ± 3.5 µM.

And the CC50 at 48 h (Cytotoxicity assay)?
Its CC50 at 48 h is 24.6 µM.

What about the “SI (selectivity index)” value (VERO cells) of the same compound?
Its value is 1.75.

Which CC50 at 48 h (Cytotoxicity assay) does the source give for `OC(CCN1CC=C(c2ccc(F)cc2)CC1)c1ccc(F)c2ccccc12` (stereo not shown) [Compound 23, 1-(4-Fluoronaphthalen-1-yl)-3-[4-(4-fluorophenyl)-3,6-dihydropyridin-1(2H)-yl] propan-1-ol] here?
Its CC50 at 48 h is 49.5 µM.

What about the “SI (selectivity index)” value (VERO cells) of the same compound?
Its value is 124.

What about the “MSD (mean survival time)” value (P. berghei ANKA; P. berghei-infected mice) of the same compound?
Its value is 9 days.

And the “% Suppression of parasitemia” value (P. berghei ANKA; P. berghei-infected mice)?
Its value is 73 ± 16%.

And the IC50 [2, 8]?
Its IC50 is at most 0.19 µM.

And the IC50 [2, 9]?
Its IC50 is 0.19 ± 0.04 µM.

And the IC50 [5, 10]?
Its IC50 is at most 0.28 µM.

And the IC50 ([5]; read-out: Antimalarial activity IC50 C235, multidrug-resistant strain C235, 72 h)?
Its IC50 is 0.28 ± 0.05 µM.

And the “β-hematin inhibition activity IC50” value (β-hematin formation)?
Its value is “Not active”.

And the “induction factor (IF)” value [3]?
Its value is “lower than 2”.

And the “genotoxicity (SOS/umu test)” value [3]?
The value was “absence of genotoxicity; also recorded: not considered genotoxic”.

And the “inhibition of PM2 compared to the control” value (PM2 (plasmepsin II))?
Its value is “no significant inhibition”.

Source: paper PMC5061469 (International Journal for Parasitology: Drugs and Drug …, 2016)
